Laboratory results: ChEMBL document CHEMBL1125268, “Targeting renal dipeptidase (dehydropeptidase I) for inactivation by mechanism-based inactivators” (J Med Chem, 1991)

Experiments:
[1] = molecular target: T1, Dipeptidase 1 (Sus scrofa) (UniProt P22412); assay: The catalytic constant of the enzyme Renal dipeptidase was reported.
T1 sequence (whole entry): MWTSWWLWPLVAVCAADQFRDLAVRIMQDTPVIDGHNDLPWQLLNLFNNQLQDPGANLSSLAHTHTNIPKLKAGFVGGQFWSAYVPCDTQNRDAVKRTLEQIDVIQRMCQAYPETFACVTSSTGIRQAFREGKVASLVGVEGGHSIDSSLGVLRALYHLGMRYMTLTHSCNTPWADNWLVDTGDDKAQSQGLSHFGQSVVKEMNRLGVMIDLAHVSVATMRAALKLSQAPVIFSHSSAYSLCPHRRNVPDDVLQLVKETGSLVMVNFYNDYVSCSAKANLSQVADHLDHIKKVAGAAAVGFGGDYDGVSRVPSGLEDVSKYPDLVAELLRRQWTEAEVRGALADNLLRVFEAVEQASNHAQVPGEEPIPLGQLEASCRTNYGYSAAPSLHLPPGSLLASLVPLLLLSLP

[2] = molecular target: T1, Dipeptidase 1 (Sus scrofa); assay: The double -reciprocal analysis of the pseudo-first -order inactivation rates verses the inhibitor concentrations were calculated for Renal dipeptidase
[3] = molecular target: T1, Dipeptidase 1 (Sus scrofa); assay: The double -reciprocal analysis of the pseudo-first -order inactivation rates verses the inhibitor concentrations were calculated for Inactivator of Renal dipeptidase
[4] = molecular target: T1, Dipeptidase 1 (Sus scrofa); assay: The catalytic constant of the enzyme Inactivator of Renal dipeptidase was reported.
[5] = substrate: C=C(CC(=O)CC#N)C(=O)O; assay: (§1) Michaelis-Menten constant was reported for the compound against Renal dipeptidase
[6] = substrate: C=C(NC(=O)CBr)C(=O)O; assay: as §1
[7] = compound: C=C(NC(=O)CC#N)C(=O)O; assay: Michaelis-Menten constant was reported for the compound against Inactivator of Renal dipeptidase

For `C=C(CC(=O)CC#N)C(=O)O`, the k cat [1] was 0.55 s⁻¹ and the K inact [2] was 0.151 min⁻¹.

For `C=C(NC(=O)CBr)C(=O)O`, the k cat [1] was 0.538 s⁻¹.

For `C=C(NC(=O)CC#N)C(=O)O`, the K inact [3] was 0.277 min⁻¹ and the k cat [4] was 0.25 s⁻¹.

B1: Dipeptidase 1 (Sus scrofa), P22412 (protein)
chain: MWTSWWLWPLVAVCAADQFRDLAVRIMQDTPVIDGHNDLPWQLLNLFNNQLQDPGANLSSLAHTHTNIPKLKAGFVGGQFWSAYVPCDTQNRDAVKRTLEQIDVIQRMCQAYPETFACVTSSTGIRQAFREGKVASLVGVEGGHSIDSSLGVLRALYHLGMRYMTLTHSCNTPWADNWLVDTGDDKAQSQGLSHFGQSVVKEMNRLGVMIDLAHVSVATMRAALKLSQAPVIFSHSSAYSLCPHRRNVPDDVLQLVKETGSLVMVNFYNDYVSCSAKANLSQVADHLDHIKKVAGAAAVGFGGDYDGVSRVPSGLEDVSKYPDLVAELLRRQWTEAEVRGALADNLLRVFEAVEQASNHAQVPGEEPIPLGQLEASCRTNYGYSAAPSLHLPPGSLLASLVPLLLLSLP
With B1 the Km [5] was 10300 µM, the Km [6] was 740 µM and the Km [7] was 416 µM.
